In patent US9440950B2, “Arginine methyltransferase inhibitors and uses thereof” (Epizyme, Inc., priority 2013, dated 2016):

What follows are compounds tested against T1, human PRMT6 (Homo sapiens, UniProt Q96LA8) (assay: PRMT6 Biochemical Assay). Details: peptide substrate, 3H-SAM Flashplate assay.
T1 construct: Flag-PRMT6-His; made in house; host or cells: HEK 293F cells (BacMam virus, pFastBacMam)
From the text: S-adenosylmethionine (SAM), S-adenosylhomocysteine (SAH), bicine, Tween20, dimethylsulfoxide (DMSO), bovine skin gelatin (BSG), sodium butyrate and Tris(2-carboxyethyl)phosphine hydrochloride solution (TCEP) were purchased from Sigma-Aldrich at the highest level of purity possible. ^3H-SAM was purchase from American Radiolabeled Chemicals with a specific activity of 80 Ci/mmol. 384-well streptavidin Flashplates were purchased from PerkinElmer.
Peptide representative of human histone H4 residues 36-50 was synthesized with an N-terminal linker-affinity tag motif and a C-terminal amide cap by 21st Century Biochemicals. The peptide was purified by high-performance liquid chromatography (HPLC) to greater than 95% purity and confirmed by liquid chromatography mass spectrometry (LC-MS). The sequence was Biot-Ahx-[…]-amide and contained a monomethylated lysine at position 44 (SEQ ID NO.:5).
Full-length human PRMT6 (NM_018137.2) transcript clone was amplified from an HEK 293 cDNA library, incorporating a flanking 5′ sequence encoding a FLAG tag ([…]) (SEQ ID NO.:6) fused directly to Ser 2 of PRMT6 and a 3′ sequence encoding a hexa His sequence (HHHHHH) fused directly to Asp 375. The amplified gene was subcloned into pFastBacMam (Viva Biotech).
Recombinant baculovirus were generated according to Bac-to-Bac kit instructions (Life Technologies). […] Infections were carried out at 37° C. for 48 hours, harvested by centrifugation, and stored at −80° C. for purification.
Column was washed with 20 mM imidazole in the same buffer and Flag-PRMT6-His was eluted with 150 mM imidazole. Pooled fractions were dialysed against buffer Ni-A and further purified by anti-flag M2 affinity chromatography. Flag-PRMT6-His was eluted with 200 ug/ml FLAG peptide in the same buffer. Pooled fractions were dialysed in 20 mM Tris, 150 mM NaCl, 10% glycerol and 5 mM β-mercaptoethanol, pH 7.8. The purity of recovered protein was 95%.
General Procedure for PRMT6 Enzyme Assays on Peptide Substrates.
The assays were all performed in a buffer consisting of 20 mM Bicine (pH=7.6), 1 mM TCEP, 0.005% BSG, and 0.002% Tween 20, prepared on the day of use. Compounds in 100% DMSO (1 ul) were spotted into a polypropylene 384-well V-bottom plates (Greiner) using a Platemate Plus outfitted with a 384-channel head (Thermo Scientific). DMSO (1 ul) was added to Columns 11, 12, 23, 24, rows A-H for the maximum signal control and 1 ul of SAH, a known product and inhibitor of PRMT6, was added to columns 11, 12, 23, 24, rows I-P for the minimum signal control. A cocktail (40 ul) containing the PRMT6 enzyme was added by Multidrop Combi (Thermo-Fisher). The compounds were allowed to incubate with PRMT6 for 30 min at room temperature, then a cocktail (10 ul) containing SAM and peptide was added to initiate the reaction (final volume=51 ul). The final concentrations of the components were as follows: PRMT6 was 1 nM, ^3H-SAM was 200 nM, non-radiolabeled SAM was 250 nM, peptide was 75 nM, SAH in the minimum signal control wells was 1 mM, and the DMSO concentration was 2%. The assays were stopped by the addition of non-radiolabeled SAM (10 ul) to a final concentration of 400 uM, which dilutes the ^3H-SAM to a level where its incorporation into the peptide substrate is no longer detectable. 50 ul of the reaction in the 384-well polypropylene plate was then transferred to a 384-well Flashplate and the biotinylated peptides were allowed to bind to the streptavidin surface for at least 1 hour before being washed once with 0.1% Tween20 in a Biotek ELx405 plate washer. The plates were then read in a PerkinElmer TopCount plate reader to measure the quantity of ^3H-labeled peptide bound to the Flashplate surface, measured as disintegrations per minute (dpm) or alternatively, referred to as counts per minute (cpm).
Where dpm=disintegrations per minute, cmpd=signal in assay well, and min and max are the respective minimum and maximum signal controls. […]

T1 sequence (Q96LA8 with tags, fused parts or gaps): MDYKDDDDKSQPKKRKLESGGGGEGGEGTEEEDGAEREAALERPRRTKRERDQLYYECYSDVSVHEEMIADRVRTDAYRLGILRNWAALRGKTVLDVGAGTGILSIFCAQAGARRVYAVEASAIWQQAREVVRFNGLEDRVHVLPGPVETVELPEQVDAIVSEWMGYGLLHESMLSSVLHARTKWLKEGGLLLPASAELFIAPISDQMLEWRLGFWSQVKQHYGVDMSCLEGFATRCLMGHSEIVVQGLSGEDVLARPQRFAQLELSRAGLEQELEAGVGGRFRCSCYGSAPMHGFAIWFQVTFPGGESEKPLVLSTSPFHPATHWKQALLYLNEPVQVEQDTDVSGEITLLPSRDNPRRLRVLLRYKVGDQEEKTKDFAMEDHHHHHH

`CNCCN(C)Cc1c[nH]nc1-c1cccnc1` [Compound 1] and `CN(CCN)Cc1c[nH]nc1-c1cccnc1` [Compound 8] cannot be ordered by IC50: ≤ 100 nM for the first, ≤ 100 nM for the second.

First: CNCCN(C)Cc1c[nH]nc1-c1ccc(O)nc1 [Compound 2]
Second: CNCCN(C)Cc1c[nH]nc1-c1ccc(N)nc1 [Compound 3]
The IC50 of the first is higher: 1010 to 3000 nM for the first, ≤ 100 nM for the second. The second is the more potent here.

Compared with `CN(CCN)Cc1c[nH]nc1-c1cncc(S(C)(=O)=O)c1` [Compound 4], `Cc1cncc(-c2n[nH]cc2CN(C)CCN)c1` [Compound 6] is higher in IC50: 1010 to 3000 nM for the first, 3010 to 10000 nM for the second.

`COc1ccc(-c2n[nH]cc2CN(C)CCN)cn1` [Compound 5] and `CC(C)Oc1ccc(-c2n[nH]cc2CN(C)CCN)cn1` [Compound 22] cannot be ordered by IC50: ≤ 100 nM for the first, ≤ 100 nM for the second.

`CN(CCN)Cc1c[nH]nc1-c1cncc(F)c1` [Compound 7] and `CN(CCN)Cc1c[nH]nc1-c1cncc(Cl)c1` [Compound 19] cannot be ordered by IC50: ≤ 100 nM for the first, ≤ 100 nM for the second.

Compared with `CN(CCN)Cc1c[nH]nc1-c1ccncc1` [Compound 9], `Cc1ccncc1-c1n[nH]cc1CN(C)CCN` [Compound 17] is higher in IC50: ≤ 100 nM for the first, 101 to 1000 nM for the second. The first is the more potent here.

First: Cc1cc(-c2n[nH]cc2CN(C)CCN)cnc1Cl [Compound 10]
Second: COc1cc(-c2n[nH]cc2CN(C)CCN)c(Cl)cn1 [Compound 12]
The IC50 of the first is lower: ≤ 100 nM for the first, 101 to 1000 nM for the second.

Compared with `COc1cc(-c2n[nH]cc2CN(C)CCN)ccn1` [Compound 11], `COc1ncccc1-c1n[nH]cc1CN(C)CCN` [Compound 15] is higher in IC50: ≤ 100 nM for the first, 101 to 1000 nM for the second.

`CN(CCN)Cc1c[nH]nc1-c1ccc(C(F)(F)F)nc1` [Compound 13, N^1-methyl-N^1-((3-(6-(trifluoromethyl)pyridin-3-yl)-1H-pyrazol-4-yl)methyl)ethane-1,2-diamine] and `CN(CCN)Cc1c[nH]nc1-c1ccc(C#N)nc1` [Compound 28, 5-(4-(((2-aminoethyl)(methyl)amino)methyl)-1H-pyrazol-3-yl)picolinonitrile] cannot be ordered by IC50: ≤ 100 nM for the first, ≤ 100 nM for the second.

First: COc1ncc(Cl)cc1-c1n[nH]cc1CN(C)CCN [Compound 14]
Second: COc1ccncc1-c1n[nH]cc1CN(C)CCN [Compound 16]
The IC50 of the first is higher: 1010 to 3000 nM for the first, 101 to 1000 nM for the second.

`CN(CCN)Cc1c[nH]nc1-c1cncc(C#N)c1` [Compound 18] and `CN(CCN)Cc1c[nH]nc1-c1cnccc1C(F)(F)F` [Compound 29] fall in the same range of IC50: 101 to 1000 nM for the first, 101 to 1000 nM for the second.

`CN(CCN)Cc1c[nH]nc1-c1ccc(N2CCOCC2)nc1` [Compound 20] and `CCN(CC)c1ccc(-c2n[nH]cc2CN(C)CCN)cn1` [Compound 24] fall in the same range of IC50: 101 to 1000 nM for the first, 101 to 1000 nM for the second.

`CC(C)CN(C)c1ccc(-c2n[nH]cc2CN(C)CCN)cn1` [Compound 21] and `CNCCN(C)Cc1c[nH]nc1-c1ccc(N(C)CC(C)C)nc1` [Compound 32, N^1-((3-(6-(isobutyl(methyl)amino)pyridin-3-yl)-1H-pyrazol-4-yl)methyl)-N^1,N^2-dimethylethane-1,2-diamine] fall in the same range of IC50: 101 to 1000 nM for the first, 101 to 1000 nM for the second.

`CN(CCN)Cc1c[nH]nc1-c1ccc(N(C)Cc2ccccc2)nc1` [Compound 23] and `CN(CCN)Cc1c[nH]nc1-c1ccc(NCc2ccccc2)nc1` [Compound 25] cannot be ordered by IC50: ≤ 100 nM for the first, ≤ 100 nM for the second.

`CC(C)CNc1ccc(-c2n[nH]cc2CN(C)CCN)cn1` [Compound 26] and `CNCCN(C)Cc1c[nH]nc1-c1ccc(OCC(C)C)nc1` [Compound 35, N^1-((3-(6-iso-butoxypyridin-3-yl)-1H-pyrazol-4-yl)methyl)-N^1,N^2-dimethylethane-1,2-diamine] cannot be ordered by IC50: ≤ 100 nM for the first, ≤ 100 nM for the second.

First: CN(CCN)Cc1c[nH]nc1-c1ccccn1 [Compound 27]
Second: CNCCN(C)Cc1c[nH]nc1-c1ccc(N(C)C(C)C)nc1 [Compound 33, N^1-((3-(6-(isopropyl(methyl)amino)pyridin-3-yl)-1H-pyrazol-4-yl)methyl)-N^1,N^2-dimethylethane-1,2-diamine]
The IC50 of the first is higher: 3010 to 10000 nM for the first, 101 to 1000 nM for the second. The second is the more potent here.

Compared with `CNCCN(C)Cc1c[nH]nc1-c1ccc(N(C)CCC(C)C)nc1` [Compound 30], `CCN(CCC(C)C)c1ccc(-c2n[nH]cc2CN(C)CCNC)cn1` [Compound 34, N^1-((3-(6-(ethyl(isopentyl)amino)pyridin-3-yl)-1H-pyrazol-4-yl)methyl)-N^1,N^2-dimethylethane-1,2-diamine] is higher in IC50: ≤ 100 nM for the first, 101 to 1000 nM for the second.

`CNCCN(C)Cc1c[nH]nc1-c1ccc(N(CC(C)C)CC(C)C)nc1` [Compound 31] and `CCN(CC(C)C)c1ccc(-c2n[nH]cc2CN(C)CCNC)cn1` [Compound 36] fall in the same range of IC50: 1010 to 3000 nM for the first, 1010 to 3000 nM for the second.
